According to patent publication USRE46856E1, “Substituted 2,3-dihydroimidazo[1,2-c]quinazoline derivatives useful for treating hyper-proliferative disorders and diseases associated with angiogenesis” (Bayer Intellectual Property GmbH, priority 2006, dated 2018):

Experiments:
[1] = biological target: T1, PI3Kα (Homo sapiens, UniProt P42336); test: Solid-phase lipid kinase assay of PI3Kα (p110α assay); assay type: biochemical; conditions: recombinant truncated human p110α, 10 μM ATP
T1 construct: His6 (N); made in house; host or cells: S. frugiperda 9 (Sf9) insect cells
T1 sequence (P42336 109-1068): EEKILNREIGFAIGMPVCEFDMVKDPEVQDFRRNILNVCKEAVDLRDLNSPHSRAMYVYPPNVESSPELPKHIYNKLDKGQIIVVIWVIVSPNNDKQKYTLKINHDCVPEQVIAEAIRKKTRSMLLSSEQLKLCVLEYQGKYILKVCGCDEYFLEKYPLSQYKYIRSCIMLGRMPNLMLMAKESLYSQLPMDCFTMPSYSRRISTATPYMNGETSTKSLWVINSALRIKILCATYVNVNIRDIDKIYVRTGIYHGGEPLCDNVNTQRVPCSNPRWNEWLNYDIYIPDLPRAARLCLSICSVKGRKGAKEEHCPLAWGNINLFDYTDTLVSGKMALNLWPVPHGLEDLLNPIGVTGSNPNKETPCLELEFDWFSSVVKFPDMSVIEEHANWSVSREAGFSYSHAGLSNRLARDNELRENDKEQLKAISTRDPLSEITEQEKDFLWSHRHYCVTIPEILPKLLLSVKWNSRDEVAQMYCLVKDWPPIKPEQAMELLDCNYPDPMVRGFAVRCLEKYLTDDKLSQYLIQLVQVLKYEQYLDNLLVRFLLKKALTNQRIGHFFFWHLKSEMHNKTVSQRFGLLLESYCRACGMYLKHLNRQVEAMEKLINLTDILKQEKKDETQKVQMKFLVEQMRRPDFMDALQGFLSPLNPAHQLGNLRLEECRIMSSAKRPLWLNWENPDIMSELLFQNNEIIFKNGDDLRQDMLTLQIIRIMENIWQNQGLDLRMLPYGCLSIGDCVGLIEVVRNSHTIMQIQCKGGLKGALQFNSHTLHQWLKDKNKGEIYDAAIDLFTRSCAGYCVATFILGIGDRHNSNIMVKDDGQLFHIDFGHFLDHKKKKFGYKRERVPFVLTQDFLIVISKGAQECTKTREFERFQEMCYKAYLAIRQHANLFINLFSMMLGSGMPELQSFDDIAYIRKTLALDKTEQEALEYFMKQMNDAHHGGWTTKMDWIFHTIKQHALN
Text: [Determination of IC50 Values of Compounds in Kinase Assay of PI3Kα]
LABORATORIES (Toronto, Canada). […] [γ^33P]ATP and unlabeled ATP were purchased from […] […] BIOTECH (Buckinghamshire, UK) and ROCHE DIAGNOSTICS (Mannheim, Germany), respectively. Scintillation cocktails and MicroScint PS™ were purchased from PACKARD (Meriden, Conn.). Maxisorp™ plates were purchased from NALGE NUNC INTERNATIONAL K.K. (Tokyo, Japan). All other chemicals not further specified were from WAKO PURE CHEMICALS (Osaka, Japan).
The plates were subsequently air-dried by incubation for at least 2 hours in a fume hood. The reaction was set up by mixing 25 μL/well of assay buffer 2×(100 mM MOPSO/NaOH, 0.2 M NaCl, pH 7.0, 8 mM MgCl2, 2 mg/mL BSA (fatty acid-free)), and 7.5 ng/well PI3Kα in the lipid pre-coated plate. 100× test compounds were added in 2% DMSO. The reaction was started by adding 20 μL/well of ATP mix (final 10 μM ATP; 0.05 μCi/well [γ^33P]ATP). After incubation at RT for 2 hours, the reaction was terminated by adding 50 μl/well stop solution (50 mM EDTA, pH 8.0). The plate was then washed twice with Tris-buffered saline (TBS, pH 7.4). MicroScint PS™ (PACKARD) scintillation mix was added at 100 μL/well, and radioactivity was counted using a TopCount™ (PACKARD) scintillation counter.
The inhibition percent at each concentration of compound was calculated, and IC50 values were determined from the inhibition of curve.

[2] = biological target: T2, PI3Kβ (Homo sapiens, UniProt P42338); test: Isozyme selectivity test: kinase assay of PI3Kβ (p110β assay); assay type: biochemical; conditions: recombinant truncated p110β, 7.5 ng protein/well
T2 construct: His6 (N); made in house; host or cells: S. frugiperda 9 (Sf9) insect cells
T2 sequence (P42338 109-1070): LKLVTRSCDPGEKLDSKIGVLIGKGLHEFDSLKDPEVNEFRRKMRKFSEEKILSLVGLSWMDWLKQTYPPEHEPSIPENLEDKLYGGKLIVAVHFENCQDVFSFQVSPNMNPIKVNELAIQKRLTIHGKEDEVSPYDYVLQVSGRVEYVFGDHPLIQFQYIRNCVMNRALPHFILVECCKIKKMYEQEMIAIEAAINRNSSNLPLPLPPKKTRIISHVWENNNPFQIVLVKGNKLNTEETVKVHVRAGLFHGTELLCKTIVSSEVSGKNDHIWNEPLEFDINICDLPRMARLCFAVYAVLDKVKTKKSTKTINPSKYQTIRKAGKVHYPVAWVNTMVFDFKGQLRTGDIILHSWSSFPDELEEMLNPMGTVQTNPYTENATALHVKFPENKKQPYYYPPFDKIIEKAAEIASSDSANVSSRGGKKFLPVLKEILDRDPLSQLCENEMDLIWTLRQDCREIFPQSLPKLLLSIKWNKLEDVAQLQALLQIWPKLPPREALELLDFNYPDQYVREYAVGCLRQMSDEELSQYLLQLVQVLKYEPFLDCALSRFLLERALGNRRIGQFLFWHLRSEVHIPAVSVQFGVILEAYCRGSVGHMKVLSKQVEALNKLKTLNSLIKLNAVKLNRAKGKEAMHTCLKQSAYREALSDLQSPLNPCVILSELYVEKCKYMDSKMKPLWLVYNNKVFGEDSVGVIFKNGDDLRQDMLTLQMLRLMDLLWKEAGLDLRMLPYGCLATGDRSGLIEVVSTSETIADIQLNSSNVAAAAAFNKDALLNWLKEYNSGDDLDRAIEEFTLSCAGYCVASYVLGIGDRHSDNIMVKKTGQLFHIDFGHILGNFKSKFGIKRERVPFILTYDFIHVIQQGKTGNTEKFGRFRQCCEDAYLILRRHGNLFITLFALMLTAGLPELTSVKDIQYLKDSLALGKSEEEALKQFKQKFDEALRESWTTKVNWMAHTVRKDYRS
Text: [Isozyme Selectivity Test in PI3K]
Determination of IC50 Values of Compounds in Kinase Assays of PI3Kβ and PI3Kγ

[3] = system: IGF-1 induced AKT phosphorylation in A549 cells; test: IGF-1 induced AKT phosphorylation assay (A549 cell assay); assay type: cell-based; conditions: Homo sapiens; A549 cells, 25 ng/ml IGF-1, phospho-AKT(Ser 473); read-out: average IC50 in the A549 cell assay
Procedure, shortened: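 A549 cells stimulated with 25 ng/ml IGF-1 for 10 min at 37 °C, then fixed in formaldehyde/methanol. Phospho-AKT detected by cell ELISA (primary anti-phospho-AKT, HRP secondary, ECL luminescence); IC50 from inhibition curve.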

| Structure (SMILES) | IC50 [1] [nM] | IC50 [2] [nM] | IC50 [3] [nM] |
| --- | --- | --- | --- |
| COc1c(OCCCN2CCOCC2)ccc2c1N=C(NC(=O)c1ccc(NCc3ccc(F)cc3)nc1)N1CCN=C21 [Example 53, 6-[(4-fluorobenzyl)amino]-N-[7-methoxy-8-(3-morpholin-4-ylpropoxy)-2,3-dihydroimidazo[1,2-c]quinazolin-5-yl]nicotinamide] | 10 to 100 | 10 to 100 | > 1000 |
| COc1c(OCCCN2C[C@@H](C)O[C@@H](C)C2)ccc2c1N=C(NC(=O)c1ccc(N)nc1)N1CCN=C21 [Example 39, rel-6-amino-N-(8-{3-[(2R,6S)-2,6-dimethylmorpholin-4-yl]propoxy}-7-methoxy-2,3-dihydroimidazo[1,2-c]quinazolin-5-yl)nicotinamide] | < 10 | < 10 | < 100 |
| COc1c(OCCCN2CCOCC2)ccc2c1N=C(NC(=O)c1cnc(N3CCN(C)CC3)nc1)N1CCN=C21 [Example 48, N-[7-methoxy-8-(3-morpholin-4-ylpropoxy)-2,3-dihydroimidazo[1,2-c]quinazolin-5-yl]-2-(4-methylpiperazin-1-yl)pyrimidine-5-carboxamide] | > 100 | > 100 | > 1000 |
| COc1c(OCCCN2CCOCC2)ccc2c1N=C(NC(=O)c1ccnc(N)n1)N1CCN=C21 [Example 25, 2-amino-N-[7-methoxy-8-(3-morpholin-4-ylpropoxy)-2,3-dihydroimidazo[1,2-c]quinazolin-5-yl]pyrimidine-4-carboxamide] | 10 to 100 | 10 to 100 | > 1000 |
| COc1c(OCCCN2CCOCC2)ccc2c1N=C(NC(=O)c1ccc(NC3CCCC3)nc1)N1CCN=C21 [Example 15, 6-(cyclopentylamino)-N-[7-methoxy-8-(3-morpholin-4-ylpropoxy)-2,3-dihydroimidazo[1,2-c]quinazolin-5-yl]nicotinamide] | 10 to 100 | 10 to 100 | > 1000 |
| COCCN1CCOC(CCOc2ccc3c(c2OC)N=C(NC(=O)c2cccnc2)N2CCN=C32)C1 (stereo not drawn) [Example 20, N-(7-methoxy-8-{2-[4-(2-methoxyethyl)morpholin-2-yl]ethoxy}-2,3-dihydroimidazo[1,2-c]quinazolin-5-yl)nicotinamide] | < 10 | < 10 | < 100 |
| COc1c(OCCCN2CCOCC2)ccc2c1N=C(NC(=O)c1ccncn1)N1CCN=C21 [Example 24, N-[7-methoxy-8-(3-morpholin-4-ylpropoxy)-2,3-dihydroimidazo[1,2-c]quinazolin-5-yl]pyrimidine-4-carboxamide] | > 100 | > 100 | > 1000 |
| COCCCNc1ncc(C(=O)NC2=Nc3c(ccc(OCCCN4CCOCC4)c3OC)C3=NCCN23)cn1 [Example 41, N-[7-methoxy-8-(3-morpholin-4-ylpropoxy)-2,3-dihydroimidazo[1,2-c]quinazolin-5-yl]-2-[(3-methoxypropyl)amino]pyrimidine-5-carboxamide] | 10 to 100 | 10 to 100 | 100 to 1000 |
| COc1c(OCCCN2CCOC[C@@H]2C)ccc2c1N=C(NC(=O)c1cccnc1)N1CCN=C21 [Example 17, N-{7-methoxy-8-[3-(3-methylmorpholin-4-yl)propoxy]-2,3-dihydroimidazo[1,2-c]quinazolin-5-yl}nicotinamide] | 10 to 100 | 10 to 100 | – |
| COc1c(OCCCN2CCOCC2)ccc2c1N=C(NC(=O)c1cnc(N3CCOCC3)nc1)N1CCN=C21 [Example 49, N-[7-methoxy-8-(3-morpholin-4-ylpropoxy)-2,3-dihydroimidazo[1,2-c]quinazolin-5-yl]-2-morpholin-4-ylpyrimidine-5-carboxamide] | 10 to 100 | 10 to 100 | – |
| COc1c(OCCCN2CCOCC2)ccc2c1N=C(NC(=O)c1cnc(N3CCCC3)nc1)N1CCN=C21 [Example 47, N-[7-methoxy-8-(3-morpholin-4-ylpropoxy)-2,3-dihydroimidazo[1,2-c]quinazolin-5-yl]-2-pyrrolidin-1-ylpyrimidine-5-carboxamide] | 10 to 100 | 10 to 100 | < 100 |
| COc1c(OCCCN2C[C@@H](C)O[C@@H](C)C2)ccc2c1N=C(NC(=O)c1ccc(C)nc1)N1CCN=C21 [Example 28, rel-N-(8-{3-[(2R,6S)-2,6-dimethylmorpholin-4-yl]propoxy}-7-methoxy-2,3-dihydroimidazo[1,2-c]quinazolin-5-yl)-6-methylnicotinamide] | < 10 | < 10 | < 100 |
| COc1c(OCCCN2C[C@@H](C)O[C@@H](C)C2)ccc2c1N=C(NC(=O)c1cncnc1)N1CCN=C21 [Example 27, rel-N-(8-{3-[(2R,6S)-2,6-dimethylmorpholin-4-yl]propoxy}-7-methoxy-2,3-dihydroimidazo[1,2-c]quinazolin-5-yl)pyrimidine-5-carboxamide] | < 10 | < 10 | < 100 |
| COc1c(OCCCN2CCOCC2)ccc2c1N=C(NC(=O)c1ccc(N3CCOCC3)nc1)N1CCN=C21 [Example 57, N-[7-methoxy-8-(3-morpholin-4-ylpropoxy)-2,3-dihydroimidazo[1,2-c]quinazolin-5-yl]-6-morpholin-4-ylnicotinamide] | 10 to 100 | 10 to 100 | 100 to 1000 |
| COc1c(OCCCN2C[C@@H](C)O[C@@H](C)C2)ccc2c1N=C(NC(=O)c1cnc(N)nc1)N1CCN=C21 [Example 38, rel-2-amino-N-(8-{3-[(2R,6S)-2,6-dimethylmorpholin-4-yl]propoxy}-7-methoxy-2,3-dihydroimidazo[1,2-c]quinazolin-5-yl)pyrimidine-5-carboxamide] | < 10 | < 10 | < 100 |
| COc1c(OCCCN2CCOCC2)ccc2c1N=C(NC(=O)c1cn(C)cn1)N1CCN=C21 [Example 26, N-[7-methoxy-8-(3-morpholin-4-ylpropoxy)-2,3-dihydroimidazo[1,2-c]quinazolin-5-yl]-1-methyl-1H-imidazole-4-carboxamide] | 10 to 100 | 10 to 100 | > 1000 |
| COc1c(OCCCN2CCOCC2)ccc2c1N=C(NC(=O)c1ccc(CCN3CCCC3)nc1)N1CCN=C21 [Example 14, N-[7-methoxy-8-(3-morpholin-4-ylpropoxy)-2,3-dihydroimidazo[1,2-c]quinazolin-5-yl]-6-(2-pyrrolidin-1-ylethyl)nicotinamide] | 10 to 100 | 10 to 100 | > 1000 |
| COc1c(OCCCN2CCOCC2)ccc2c1N=C(NC(=O)c1ccc(OCC(F)(F)F)nc1)N1CCN=C21 [Example 61, N-[7-methoxy-8-(3-morpholin-4-ylpropoxy)-2,3-dihydroimidazo[1,2-c]quinazolin-5-yl]-6-(2,2,2-trifluoroethoxy)nicotinamide] | 10 to 100 | 10 to 100 | 100 to 1000 |
| COc1c(OCCCN2CCOCC2)ccc2c1N=C(NC(=O)c1ccc(N3CCCC3)nc1)N1CCN=C21 [Example 72, N-[7-methoxy-8-(3-morpholin-4-ylpropoxy)-2,3-dihydroimidazo[1,2-c]quinazolin-5-yl]-6-pyrrolidin-1-ylnicotinamide] | – | – | 100 to 1000 |
| COCCNc1ncc(C(=O)NC2=Nc3c(ccc(OCCCN4CCOCC4)c3OC)C3=NCCN23)cn1 [Example 44, 2-[(2-methoxyethyl)amino]-N-[7-methoxy-8-(3-morpholin-4-ylpropoxy)-2,3-dihydroimidazo[1,2-c]quinazolin-5-yl]pyrimidine-5-carboxamide] | – | – | > 1000 |
| COc1c(OCCN(C)C)ccc2c1N=C(NC(=O)c1cncnc1)N1CCN=C21 [Example 9, N-{8-[2-(dimethylamino)ethoxy]-7-methoxy-2,3-dihydroimidazo[1,2-c]quinazolin-5-yl}pyrimidine-5-carboxamide] | – | – | 100 to 1000 |
| COc1c(OCCCN(C)C)ccc2c1N=C(NC(=O)c1cccnc1)N1CCN=C21 [Example 88, N-{8-[3-(dimethylamino)propoxy]-7-methoxy-2,3-dihydroimidazo[1,2-c]quinazolin-5-yl}nicotinamide] | – | – | 100 to 1000 |
| COc1c(OCCCN(C)C)ccc2c1N=C(NC(=O)c1cnc(NCCN(C)C)nc1)N1CCN=C21 [Example 36, 2-{[2-(dimethylamino)ethyl]amino}-N-{8-[3-(dimethylamino)propoxy]-7-methoxy-2,3-dihydroimidazo[1,2-c]quinazolin-5-yl}pyrimidine-5-carboxamide] | – | – | 100 to 1000 |
